Here are results for one compound from patent US20180362543A1, “HIV REPLICATION INHIBITOR” (Shionogi & Co., Ltd., priority 2013, published 2018).

Usually EC50 stands for the concentration needed to bring the measured effect to its halfway point.

The test system of one data set is HIV (HTLV-III B strain). The experiment in a line: HIV replication inhibition assay (MTT, MT-4 cells). The format is cell-based. As to conditions: 4 days culture, concentration at which cell cytotoxicity by virus is inhibited 50%. Put shortly: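 MT-4 cells (2.5×10^4/well) infected with HTLV-III B stock (60 pfu) in presence of compound, cultured four days at 37 °C. Viability by MTT reduction, formazan read at 560 and 690 nm. EC50 is concentration inhibiting virus-induced cytotoxicity by 50%.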

The target in data set [1] is T1, human ether-a-go-go related gene (hERG) channel (Homo sapiens, UniProt Q12809).
T1 construct: expressed in transfected cells; host or cells: HEK293
The experiment in a line: hERG test (whole cell patch clamp, IKr). Type of data set: cell-based. The conditions noted are these: HEK293 cells expressing hERG channel, concentration not given. An excerpt: For the purpose of assessing risk of an electrocardiogram QT interval prolongation, effects on delayed rectifier K+ current (IKr), which plays an important role in the ventricular repolarization process of the compound of the present invention, was studied using HEK293 cells expressing human ether-a-go-go related gene (hERG) channel.
After a cell was retained at a membrane potential of −80 mV by whole cell patch clamp method using an automated patch clamp system (PatchXpress 7000A, Axon Instruments Inc.), IKr induced by depolarization pulse stimulation at +40 mV for 2 seconds and, further, repolarization pulse stimulation at −50 mV for 2 seconds was recorded. […] From the recording IKr, an absolute value of the tail peak current was measured based on the current value at the resting membrane potential using an analysis software (DataXpress ver. 1, Molecular Devices Corporation). Further, the inhibition relative to the tail peak current before application of the test substance was calculated, and compared with the vehicle-applied group (0.1% dimethyl sulfoxide solution) to assess influence of the test substance on IKr.
Background: hERG is a cardiac potassium channel; its block is linked to QT prolongation.

T1 sequence (Q12809 whole entry): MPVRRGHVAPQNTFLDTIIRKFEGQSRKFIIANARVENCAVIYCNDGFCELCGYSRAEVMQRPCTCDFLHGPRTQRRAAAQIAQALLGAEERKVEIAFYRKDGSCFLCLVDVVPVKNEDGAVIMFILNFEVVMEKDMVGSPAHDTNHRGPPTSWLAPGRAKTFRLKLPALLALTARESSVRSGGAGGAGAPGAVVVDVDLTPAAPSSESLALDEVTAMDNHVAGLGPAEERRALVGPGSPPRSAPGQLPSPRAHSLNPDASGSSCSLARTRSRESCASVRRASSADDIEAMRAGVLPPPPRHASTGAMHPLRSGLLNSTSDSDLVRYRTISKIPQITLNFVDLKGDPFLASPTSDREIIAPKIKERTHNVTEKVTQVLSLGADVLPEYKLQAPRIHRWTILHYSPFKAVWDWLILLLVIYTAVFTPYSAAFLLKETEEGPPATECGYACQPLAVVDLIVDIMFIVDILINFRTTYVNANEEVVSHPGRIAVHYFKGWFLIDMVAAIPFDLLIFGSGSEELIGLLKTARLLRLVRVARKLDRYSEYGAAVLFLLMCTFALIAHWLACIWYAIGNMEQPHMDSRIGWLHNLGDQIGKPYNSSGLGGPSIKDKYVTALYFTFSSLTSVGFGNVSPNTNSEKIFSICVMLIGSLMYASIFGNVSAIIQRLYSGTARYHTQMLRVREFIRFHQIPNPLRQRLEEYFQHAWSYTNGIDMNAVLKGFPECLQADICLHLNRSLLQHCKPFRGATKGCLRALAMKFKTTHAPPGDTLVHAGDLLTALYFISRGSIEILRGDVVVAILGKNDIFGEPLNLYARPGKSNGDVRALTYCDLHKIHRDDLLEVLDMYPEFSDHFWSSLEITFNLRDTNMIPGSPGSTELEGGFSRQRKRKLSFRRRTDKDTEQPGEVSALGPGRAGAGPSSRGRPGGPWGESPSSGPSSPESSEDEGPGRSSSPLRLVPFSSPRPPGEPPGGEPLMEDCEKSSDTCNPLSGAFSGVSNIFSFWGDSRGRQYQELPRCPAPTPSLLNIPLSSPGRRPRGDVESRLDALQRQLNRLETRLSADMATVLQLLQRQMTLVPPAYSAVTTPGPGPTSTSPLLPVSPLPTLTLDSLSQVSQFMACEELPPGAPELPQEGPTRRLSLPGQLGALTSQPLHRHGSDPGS

`Cc1c2c(c(C)c(C(OC(C)(C)C)C(=O)O)c1-c1ccc3c(c1)CCCO3)NC(=O)N(Cc1ccccc1)C2` (centres unmarked) [Compound 7] returned an EC50 with HIV (HTLV-III B strain) of 9.6 nM. The “inhibition ratio (hERG, IKr tail peak current)” value in data set [1] was determined as 2.6%.
